Drawing on patent publication EP2739618B1, “QUINAZOLINE COMPOUNDS AS SERINE/THREONINE KINASE INHIBITORS” (Array Biopharma, Inc., priority 2011, dated 2013), this text covers IC50 for 20 compounds.

The target in the assay is T1, human ERK-2 (Mitogen Activated Kinase 1) (Homo sapiens, UniProt P28482).
T1 construct: N-terminal 6-His fusion protein in E. coli and corresponding to aa 8-360; 6-His (N); made in house; host or cells: E. coli
T1 sequence (P28482 8-360): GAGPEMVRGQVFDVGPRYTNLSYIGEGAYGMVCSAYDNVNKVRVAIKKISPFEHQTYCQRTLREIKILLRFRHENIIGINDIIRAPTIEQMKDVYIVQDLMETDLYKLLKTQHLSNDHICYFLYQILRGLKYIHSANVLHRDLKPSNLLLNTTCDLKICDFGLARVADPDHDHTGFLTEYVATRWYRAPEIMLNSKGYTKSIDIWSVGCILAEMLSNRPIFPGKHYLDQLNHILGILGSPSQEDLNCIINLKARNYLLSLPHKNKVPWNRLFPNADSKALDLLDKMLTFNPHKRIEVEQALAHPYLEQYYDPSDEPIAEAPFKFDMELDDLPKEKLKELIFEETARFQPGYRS
Kind of assay: ERK-2 Enzymatic Assay. It counts as biochemical. The settings on record: TABLE I; 5nM ERK-2 enzyme, 25µM ATP, S/T17 peptide substrate; single assay or mean of multiple assays. The method, then: Compounds were tested in an enzymatic assay using human ERK-2 (Mitogen Activated Kinase 1), recombinantly expressed as an N-terminal 6-His fusion protein in E. coli and corresponding to aa 8-360. The substrate used was the fluorescent Omnia peptide S/T17 (Invitrogen of Carlsbad, CA; Cat. KNZ1171C). Test compounds were diluted in DMSO in 3-fold serial dilutions at 100x final concentrations. […] The assay was run at ambient temperature in a white 384-well polypropylene plate (Nunc, Inc of Naperville, IL; Cat. 267462) collecting data every 50 seconds for approximately 30 minutes on an Envision plate reader (PerkinElmer, Inc. of Waltham, MA); Excitation 340 nm/Emission 495 nm. The data collected from each well was fit to a straight line and the resulting rates were used to calculate percent of control. Percent of control was plotted against compound concentration and IC50 values were determined using a four-parameter fit. Representative data is in TABLE I and TABLE II. The reported IC50 may be from a single assay or the mean of multiple assays.
For the compound “2-(tetrahydro-pyran-4-ylamino)-quinazoline-7-carboxylic acid [(R)-(4-cyano-3-fluoro-phenyl)-(1-methyl-1H-pyrazol-4-yl)-methyl]-amide [Compound I-45]”, 22 nM corresponded to half-maximal inhibition (IC50).

Compound `O=C(N[C@H](c1ccc(C(F)(F)F)c(F)c1)[C@@H]1CCCN1)c1ccc2cnc(NC3CCOCC3)nc2c1` (stereo in doubt) [Compound I-7, 2-(tetrahydropyran-4-ylamino)-quinazoline-7-carboxylic acid [(S)-(3-fluoro-4-trifluoromethyl-phenyl)-(R)-pyrrolidin-2-yl-methyl]-amide] registered an IC50 of 1.8 nM.

The compound `O=C(N[C@H](c1ccc(F)c(Cl)c1)[C@@H]1CCNC1)c1ccc2cnc(NC3CCOCC3)nc2c1` (stereo in doubt) [Compound I-9, 2-(tetrahydropyran-4-ylamino)-quinazoline-7-carboxylic acid [(R)-(3-chloro-4-fluoro-phenyl)-(S)-pyrrolidin-3-yl-methyl]-amide] returned an IC50 of 6.7 nM.

Regarding `O=C(N[C@@H](c1ccc(F)c(Cl)c1)[C@H]1CCNC1)c1ccc2cnc(NC3CCOCC3)nc2c1` (stereo in doubt) [Compound I-11, 2-(tetrahydropyran-4-ylamino)-quinazoline-7-carboxylic acid [(S)-(3-chloro-4-fluoro-phenyl)-(R)-pyrrolidin-3-yl-methyl]-amide], the IC50 is 6.4 nM.

Turning to `O=C(N[C@H](c1ccc(Cl)c(F)c1)[C@@H]1CCCN1)c1ccc2cnc(NC3CCOCC3)nc2c1` (stereo in doubt) [Compound I-23, 2-(tetrahydropyran-4-ylamino)-quinazoline-7-carboxylic acid [(S)-(4-chloro-3-fluoro-phenyl)-(R)-pyrrolidin-2-yl-methyl]-amide], half-maximal inhibition (IC50) required 2.3 nM. This IC50 lies about 2.8-fold lower than the previous one.

In the case of `COc1ccc([C@@H](NC(=O)c2ccc3cnc(NC4CCOCC4)nc3c2)[C@@H]2CCCN2)cc1F` (stereo in doubt) [Compound I-24, 2-(tetrahydropyran-4-ylamino)-quinazoline-7-carboxylic acid [(S)-(3-fluoro-4-methoxy-phenyl)-(R)-pyrrolidin-2-yl-methyl]-amide], the IC50 came out at 8.2 nM.

As for `COc1ccc([C@@H](NC(=O)c2cc(F)c3cnc(NC4CCOCC4)nc3c2)[C@@H]2CCCN2)cc1F` (stereo in doubt) [Compound I-25, 5-fluoro-2-(tetrahydropyran-4-ylamino)-quinazoline-7-carboxylic acid [(S)-(3-fluoro-4-methoxy-phenyl)-(R)-pyrrolidin-2-yl-methyl]-amide], inhibition was half-maximal at 9 nM (IC50).

As for `COc1ccc([C@@H](NC(=O)c2ccc3cnc(N[C@H](C)C4CC4)nc3c2)[C@@H]2CCCN2)cc1F` (stereo in doubt) [Compound I-26, 2-((R)-1-cyclopropyl-ethylamino)-quinazoline-7-carboxylic acid [(S)-(3-fluoro-4-methoxy-phenyl)-(R)-pyrrolidin-2-yl-methyl]-amide], the 50% inhibitory concentration (IC50) came to 2 nM. Compared with the last compound, the IC50 is about 4.5-fold lower.

`Cn1cc([C@H](NC(=O)c2ccc3cnc(NC4CCOCC4)nc3c2)c2ccc(C#N)c(Cl)c2)cn1` (stereo in doubt) [Compound I-48, (R)-N-((3-chloro-4-cyanophenyl)(1-methyl-1H-pyrazol-4-yl)methyl)-2-(tetrahydro-2H-pyran-4-ylamino)quinazoline-7-carboxamide] returned an IC50 of 1.1 nM. This IC50 is about 1.8-fold lower than that of the compound before.

Regarding `Cn1cc([C@@H](NC(=O)c2ccc3cnc(NC4CCOCC4)nc3c2)c2ccc(C#N)c(Cl)c2)cn1` (stereo in doubt) [Compound I-50, (S)-N-((3-chloro-4-cyanophenyl)(1-methyl-1H-pyrazol-4-yl)methyl)-2-(tetrahydro-2H-pyran-4-ylamino)quinazoline-7-carboxamide], half-maximal inhibition (IC50) required 25 nM.

`COc1ccc([C@H](NC(=O)c2cc(F)c3cnc(N[C@@H]4CCOC4)nc3c2)c2cnn(C)c2)cc1F` (stereo in doubt) [Compound I-62, 5-Fluoro-N-((S)-(3-fluoro-4-methoxyphenyl)(1-methyl-1H-pyrazol-4-yl)methyl)-2-((R)-tetrahydrofuran-3-ylamino)quinazoline-7-carboxamide] returned an IC50 of 4 nM.

`Cn1ccc(C(NC(=O)c2ccc3cnc(NC4CCOCC4)nc3c2)c2ccc(Cl)c(F)c2)n1` (centres unmarked) [Compound I-4, 2-(tetrahydropyran-4-ylamino)-quinazoline-7-carboxylic acid [(4-chloro-3-fluoro-phenyl)-(1-methyl-1H-pyrazol-3-yl)-methyl]-amide] gave an IC50 of 5 nM.

`O=C(N[C@@H](c1ccc(F)c(Cl)c1)[C@@H]1CCNC1)c1ccc2cnc(NC3CCOCC3)nc2c1` [Compound I-8, 2-(tetrahydropyran-4-ylamino)-quinazoline-7-carboxylic acid [(R)-(3-chloro-4-fluoro-phenyl)-(R)-pyrrolidin-3-yl-methyl]-amide] registered an IC50 of 6.7 nM.

`O=C(N[C@H](c1ccc(F)c(Cl)c1)[C@H]1CCNC1)c1ccc2cnc(NC3CCOCC3)nc2c1` [Compound I-10, 2-(tetrahydropyran-4-ylamino)-quinazoline-7-carboxylic acid [(S)-(3-chloro-4-fluoro-phenyl)-(S)-pyrrolidin-3-yl-methyl]-amide]: the IC50 came to 5.4 nM.

For the compound `CN1CCC[C@@H]1[C@@H](NC(=O)c1ccc2cnc(NC3CCOCC3)nc2c1)c1ccc(C(F)(F)F)c(F)c1` [Compound I-17, 2-(Tetrahydropyran-4-ylamino)-quinazoline-7-carboxylic acid [(S)-(3-fluoro-4-trifluoromethyl-phenyl)-((R)-1-methyl-pyrrolidin-2-yl)-methyl]-amide], the half-maximal inhibitory concentration (IC50) amounted to 2.8 nM.

In turn, `CCn1ccc([C@H](NC(=O)c2ccc3cnc(NC4CCOCC4)nc3c2)c2ccc(Cl)c(F)c2)n1` [Compound I-18, 2-(tetrahydropyran-4-ylamino)-quinazoline-7-carboxylic acid [(R)-(4-chloro-3-fluoro-phenyl)-(1-ethyl-1H-pyrazol-3-yl)-methyl]-amide] displayed an IC50 of 12.8 nM. Against the preceding compound, the IC50 is about 4.6-fold higher.

Turning to `Cn1ccc([C@@H](NC(=O)c2ccc3cnc(NC4CCOCC4)nc3c2)c2ccc(Cl)c(F)c2)n1` [Compound I-20, 2-(tetrahydropyran-4-ylamino)-quinazoline-7-carboxylic acid [(S)-(4-chloro-3-fluoro-phenyl)-(1-methyl-1H-pyrazol-3-yl)-methyl]-amide], half-maximal inhibition (IC50) was put at 2 nM.

For the compound `Cn1ccc([C@H](NC(=O)c2ccc3cnc(NC4CCOCC4)nc3c2)c2ccc(Cl)c(F)c2)n1` [Compound I-21, 2-(tetrahydropyran-4-ylamino)-quinazoline-7-carboxylic acid [(R)-(4-chloro-3-fluoro-phenyl)-(1-methyl-1H-pyrazol-3-yl)-methyl]-amide], the IC50 came to 69 nM.

Compound `Cn1cc([C@@H](NC(=O)c2ccc3cnc(N[C@@H]4CCOC[C@@H]4F)nc3c2)c2ccc(Cl)c(F)c2)cn1` [Compound I-27, 2-((3R,4R)-3-fluoro-tetrahydropyran-4-ylamino)-quinazoline-7-carboxylic acid [(S)-(4-chloro-3-fluoro-phenyl)-(1-methyl-1H-pyrazol-4-yl)-methyl]-amide] returned an IC50 of 15.8 nM.

With `Cn1cc([C@@H](NC(=O)c2ccc3cnc(N[C@H]4CCOC[C@@H]4F)nc3c2)c2ccc(Cl)c(F)c2)cn1` [Compound I-29, 2-((3R,4S)-3-fluoro-tetrahydropyran-4-ylamino)-quinazoline-7-carboxylic acid [(S)-(4-chloro-3-fluoro-phenyl)-(1-methyl-1H-pyrazol-4-yl)-methyl]-amide], the IC50 is 3.8 nM.
